We go through 1 substance from paper PMC3509132, “Global Epigenetic Changes Induced by SWI2/SNF2 Inhibitors Characterize Neomycin-Resistant Mammalian Cells” (PLoS ONE, 2012).

In data set [1] the test system is MAD28 (ADAAD deletion construct; motifs Q, I). Put plainly: Fluorescence binding titration, deletion construct MAD28. The settings on record: GST fusion. On the procedure:
(§1) His-ADAAD, used for binding studies, was purified as described previously. For mapping and CD studies, ADAAD as well as deletion constructs were expressed as GST-fusion protein in BL21 (DE3) cells and purified as described previously. In case of deletion constructs the GST-tag was not cleaved as the resultant proteins were not stable.
(§2) Fluorescence was measured at 25°C using Cary-Varian spectrofluorimeter as described previously. Stem-loop DNA (5′- […]-3′), synthesized by Sigma-Aldrich, was used in these studies. The intrinsic fluorescence quenching data obtained with acrylamide was analyzed using Stern-Volmer plots as described previously, [14].

Data set [2] has as its target T1, MAD 53 (ADAAD deletion construct; motifs Ia, II, III, IV, V, VI) (Bos taurus, UniProt Q9TTA5).
T1 sequence (Q9TTA5 465-940): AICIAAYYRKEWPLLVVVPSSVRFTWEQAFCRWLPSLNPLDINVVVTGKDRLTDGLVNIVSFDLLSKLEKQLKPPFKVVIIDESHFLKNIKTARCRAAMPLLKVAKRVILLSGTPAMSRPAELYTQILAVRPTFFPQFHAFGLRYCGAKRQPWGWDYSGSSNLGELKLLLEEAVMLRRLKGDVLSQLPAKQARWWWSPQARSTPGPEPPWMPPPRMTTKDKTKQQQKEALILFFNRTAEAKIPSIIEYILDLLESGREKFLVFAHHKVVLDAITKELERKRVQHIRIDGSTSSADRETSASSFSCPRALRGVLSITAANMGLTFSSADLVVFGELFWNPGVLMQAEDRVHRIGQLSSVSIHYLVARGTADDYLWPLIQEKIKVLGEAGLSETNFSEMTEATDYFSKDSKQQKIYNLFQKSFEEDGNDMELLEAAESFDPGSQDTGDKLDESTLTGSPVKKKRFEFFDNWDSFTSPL
Put plainly: Fluorescence binding titration, deletion construct MAD53. The settings on record: GST fusion. The method, then: as §1, §2
(§3) ADAAD contains the conserved helicase motifs (Table 2). Three deletion constructs of ADAAD-MAD47, MAD33, and MAD53-lacking DNA-dependent ATPase activity were used to delineate the interaction region (Table 2). The Kd values for the interaction of ADAADiN with MAD47 and MAD 33 were similar to that of wild type leading to the conclusion that motifs Q, I, and Ia are sufficient for the ADAADi-ADAAD interaction. In contrast, these three motifs are not sufficient for the slDNA-ADAAD interaction (Table 2). […]

In data set [3] the target is T2, ADAAD (Bos taurus, UniProt Q9TTA5).
T2 sequence (Q9TTA5 229-940 limits assumed): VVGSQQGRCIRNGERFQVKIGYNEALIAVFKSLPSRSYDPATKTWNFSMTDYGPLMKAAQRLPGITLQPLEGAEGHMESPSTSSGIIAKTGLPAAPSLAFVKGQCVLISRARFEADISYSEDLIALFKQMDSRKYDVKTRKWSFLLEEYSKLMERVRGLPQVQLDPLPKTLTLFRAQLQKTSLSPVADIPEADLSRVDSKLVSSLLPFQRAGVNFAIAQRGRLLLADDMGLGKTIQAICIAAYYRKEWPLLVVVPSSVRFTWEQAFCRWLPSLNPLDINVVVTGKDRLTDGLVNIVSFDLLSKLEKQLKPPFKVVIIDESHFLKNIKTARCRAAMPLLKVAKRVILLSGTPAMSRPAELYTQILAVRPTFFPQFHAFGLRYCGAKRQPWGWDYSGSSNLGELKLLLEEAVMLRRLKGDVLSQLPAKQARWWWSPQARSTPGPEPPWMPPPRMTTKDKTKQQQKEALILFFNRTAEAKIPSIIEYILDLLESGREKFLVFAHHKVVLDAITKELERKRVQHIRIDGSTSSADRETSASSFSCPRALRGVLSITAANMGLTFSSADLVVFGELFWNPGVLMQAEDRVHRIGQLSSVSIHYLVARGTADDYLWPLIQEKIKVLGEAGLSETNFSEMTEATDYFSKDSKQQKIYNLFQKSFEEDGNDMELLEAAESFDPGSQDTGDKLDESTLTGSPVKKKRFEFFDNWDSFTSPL
The settings on record: ADAAD alone; His-ADAAD; ref Nongkhlaw et al. (Nongkhlaw, 2009); cited from earlier work.

The target in data set [4] is T3, MAD 47 (ADAAD deletion construct; motifs Q, I, Ia, II, III) (Bos taurus, UniProt Q9TTA5).
T3 sequence (Q9TTA5 211-635): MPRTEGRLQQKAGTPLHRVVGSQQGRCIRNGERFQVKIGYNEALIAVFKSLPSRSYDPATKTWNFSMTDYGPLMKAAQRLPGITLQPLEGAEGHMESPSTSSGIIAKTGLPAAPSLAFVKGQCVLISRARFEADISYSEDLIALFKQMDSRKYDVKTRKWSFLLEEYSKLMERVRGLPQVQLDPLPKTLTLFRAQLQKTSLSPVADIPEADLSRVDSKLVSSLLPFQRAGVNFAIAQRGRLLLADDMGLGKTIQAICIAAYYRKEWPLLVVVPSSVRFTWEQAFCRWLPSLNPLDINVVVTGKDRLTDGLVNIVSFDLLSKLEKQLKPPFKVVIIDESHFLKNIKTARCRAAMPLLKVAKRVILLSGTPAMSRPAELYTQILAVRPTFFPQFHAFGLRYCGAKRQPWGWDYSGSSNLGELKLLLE
Briefly: Fluorescence binding titration, deletion construct MAD47. On the procedure: as §1, §2, §3

Data set [5] has as its target T2, ADAAD. Put plainly: Intrinsic tryptophan fluorescence quenching binding titration with His-ADAAD. The settings on record: His-ADAAD, read-out: Kd. On the procedure: as §1, §2
To understand the interaction of ADAADi with ADAAD, a member of the SWI2/SNF2 family, we synthesized ADAADi using kanamycin and neomycin. These derivatives, ADAADiK and ADAADiN respectively, were purified and titrated with protein while monitoring the quenching of the intrinsic tryptophan fluorescence. […] This binding constant was same as that in the absence of ATP and slDNA. A similar result was obtained with ADAADiK (Figure S3A and S3B; Table 1). We thus conclude that the interaction of the inhibitor with ADAAD is independent of these two ligands.

The target of data set [6] is T4, MAD8 (ADAAD deletion construct; motif Ia) (Bos taurus, UniProt Q9TTA5).
T4 sequence (Q9TTA5 465-535): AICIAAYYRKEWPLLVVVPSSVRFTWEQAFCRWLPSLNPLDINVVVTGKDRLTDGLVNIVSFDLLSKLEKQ
Briefly: Fluorescence binding titration, deletion construct MAD8. The settings on record: GST fusion. On the procedure: as §1, §2

The target of data set [7] is T5, MAD 33 (ADAAD deletion construct; motifs Q, I, Ia) (Bos taurus, UniProt Q9TTA5).
T5 sequence (Q9TTA5 211-507): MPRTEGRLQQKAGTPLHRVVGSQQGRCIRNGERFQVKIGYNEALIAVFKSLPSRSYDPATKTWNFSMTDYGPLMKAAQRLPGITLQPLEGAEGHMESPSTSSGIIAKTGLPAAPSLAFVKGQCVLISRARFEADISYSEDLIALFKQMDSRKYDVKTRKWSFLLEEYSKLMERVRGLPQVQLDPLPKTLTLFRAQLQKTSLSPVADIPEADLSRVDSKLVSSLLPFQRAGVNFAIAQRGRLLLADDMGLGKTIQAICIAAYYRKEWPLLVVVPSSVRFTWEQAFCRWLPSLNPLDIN
Put plainly: Fluorescence binding titration, deletion construct MAD33. The settings on record: GST fusion. The method, then: as §1, §2, §3

pKd: −log10 of the molar value. Like-named read-outs stand apart in the source and are kept apart here.

What is called pKd is the Kd on a negative log10 scale, so that one unit is a factor of ten. Regarding “slDNA: Stem-loop DNA (5′- GCGCAATTGCGCTCGACGATTTTTTAGCGCAATTGCGC-3′), a well-characterized DNA effector of ADAAD (DNA, backbone and methylation of C not given here; stem-loop DNA)”, the pKd was 7.66 in data set [1]; 8.09 in data set [2]; 7.70 in data set [3]; 8.19 in data set [4]; 9.34 in data set [5] (ADAAD + ADAADiK (2 μM ADAADiK)); 9.20 in data set [5] (ADAAD + ADAADiN (saturated with 2 μM ADAADiN)). In addition, the negative-log Kd (pKd) in data set [6] is 8.06; in data set [7], 7.38.
